14 substances from US10286032B2, “Pro-angiogenic fragments of prominin-1 and uses thereof” (Children's Medical Center Corporation, priority 2010, dated 2019) can be followed below.

In test [1] the test system is endothelial cells. The test can be described thus: I125-VEGF binding to endothelial cells in the presence of peptide. Type of test: cell-based. The method, then:
(§1) 10000 cells were incubated in binding buffer containing 20 mM Hepes, 0.1% BSA and I^125-VEGF (12 ng/ml) for 3 h on ice.
(§2) In order to characterize the effect of the peptides on VEGF binding to endothelial and melanoma cells, the cells were incubated with various peptides (720 μg/ml) in the presence of I^125-VEGF (12 ng/ml) (FIG. 2). Peptide #237 increased VEGF binding to endothelial as well to melanoma cells. 10000 cells were incubated in binding buffer containing 20 mM Hepes, 0.1% BSA and I^125-VEGF (12 ng/ml) for 3 h on ice. Following 3 washings, the radioactive levels were determined by gamma counter. An increase of more than 25 times in I^125-VEGF binding was observed when peptide #237 was added to both kinds of cells. The other prominin-1 peptides examined had no effect on VEGF binding to endothelial cells.
Each of these peptides were tested for VEGF binding to endothelial cells and compared to peptide #237 at varying dilutions. The results are indicated herein in FIG. 7.
The inventors also investigated which amino acid residues in peptide #237 are important for the various angiogenic and VEGF related binding activity described herein. To achieve this, the inventors singly changed each of the 12 amino acid residues in peptide #237 to alanine and performed experiments examining the effect of the alanine substitution at various positions on endothelial cell binding to VEGF. A total of 12 alanine substituted peptides were made and tested: Ala-1, Ala-2, Ala-3, Ala-4, Ala-5, Ala-6, Ala-7, Ala-8, Ala-9, Ala-10, Ala-11, Ala-12, (SEQ. ID. NOS. 38-41, 3, 11, 42-47) wherein the number indicate the position where the alanine substitution occurred. In addition, a “flip #237” peptide having the sequence AAVVTTTQRQVRD (SEQ. ID. NO. 22) was also made and studied.

Test [2] has as its system ear wound. The test can be described thus: ear punch wound healing model. Type of test: in vivo, mouse. The settings on record: for wound closure versus control (peptide #237): intraperitoneal treatment, C57BL mouse.
Test [3] concerns B16-F10 melanoma cells. Put plainly: I125-VEGF binding to melanoma cells in the presence of peptide. It counts as cell-based. The following applies: peptide 720 μg/ml, I125-VEGF 12 ng/ml, 3 h on ice. The method, then:
as §1, §2

In test [4] the test system is cornea neovascularization. The test can be described thus: corneal micropocket assay with VEGF pellet. The following applies: pellet 160 ng VEGF 165 + 1.3 ug #237; 5 days. It counts as in vivo, mouse. The method, then: Vigorous vessel in-growth from the limbus at 5 days was recorded as a positive response.
In order to evaluate the modulating effect of peptide #237 on the angiogenesis process, a corneal micropocket assay was performed. Two kinds of pellets were created, both containing 160 ng carrier-free recombinant human VEGF 165 (R&D Systems, Minneapolis, Minn.), one of which contains 1.3 ug of #237 peptide. The pellets were implanted into micropockets created in the cornea of two groups of anesthetized mice (n=4). Through the use of standardized slow-release pellets, a predictable angiogenic response is generated over the course of 5 days and then quantified. The area of neovascularization was calculated as vessel area, which is calculated as the product of vessel length measured from the limbus and clock hours around the cornea, using the following equation: vessel area (mm^2)=[clock hours×vessel length (mm)×0.2 mm]. […] The in vivo experiment confirms that the peptide stimulates cell proliferation, and is therefore a good candidate to induce angiogenesis.

Test [5] relates to endothelial cells. The test can be described thus: Matrigel assay of endothelial cell migration in vivo (FACS of matrigel liberated cells). Further details: species or system C57bl mice. The settings on record: day 6; for endothelial cells among matrigel liberated cells (FACS, CD31): Matrigel with 500 ng VEGF, with or without 180 μg #237. How it is done: On day 6, animals were sacrificed and fluorescence-activated cell sorting (FACS) analysis was used for determination of the matrigel liberated cells. In order to distinguish the endothelial cells from hematopoietic cells, the cells were incubated with two antibodies CD31-PE and CD45-APC which are specific to endothelial cells and hematopoietic cells respectively.

Test [6] concerns ear wound neovascularization. Put plainly: ear wound neovascularization model. The following applies: matrigel containing 180 μg peptide daily for 5 days; 2.25 mm punch; versus plain matrigel. It counts as in vivo, nude mouse. The method, then: Microvascular in-growth into damaged tissue is an essential component of the normal healing process. In fact, wound therapy is often aimed at promoting neovascularization. The model consists of wounding the dorsal aspect of the ear of a nude mouse. A circular punch was used to create a standardized wound on a nude mouse ear. Constant diameter of wound is given by the size of the punch (2.25 mm), and the ears were treated daily with plain matrigel (FIG. 6A) or matrigel containing peptide #237 (180 μg) (FIG. 6B) for 5 days. […] In order to evaluate the wound neovascularization, the mice were inoculated by dextran-FITC which specifically labeled the endothelial cells, immediately after anesthetizing them.

In test [7] the test system is ischemic hind limb blood flow. The test can be described thus: hind limb ischemia model, local injection or pump (Example 11). Type of test: in vivo, mouse. The settings on record: after 48 h. How it is done:
FIG. 10A are laser doppler images showing the effects of direct injection of either saline or peptide #237 to the ischemic site (800 μg) in a mouse hind limb ischemia model. Mice were ligated in both of their femoral arteries to simulate hind limb ischemia. The blood flow in mice was analyzed by machine for each mouse before and immediately after the procedure to evaluate if the femoral was ligated properly. (Note that amino acid 12 of SEQ. ID. NO: 1 is alanine; this amino acid was substituted with […] in the Ala-12 substitution variant.)
FIG. 10B are laser doppler images showing the effects of injection by pumps of either the saline or peptide #237 to the ischemic site (800 μg) in a mouse hind limb ischemia model. Just the left femoral artery was ligated to simulate hind limb ischemia. Mice from group B were treated systemically by pumps that were implanted to the mouse's back one day prior to the procedure. […] The blood flow was analyzed by machine for each mouse before and immediately after the procedure to evaluate if the femoral was ligated properly. […]
The angiogenic effects of peptide #237 were investigated using the mouse hind limb ischemia model. […] The blood flow was analyzed by Laser Doppler perfusion imagery machine for each mouse before and immediately after the procedure to evaluate if the femoral was ligated properly. […]

In test [8] the test system is ischemic hind limb blood flow. The test can be described thus: hind limb ischemia model, intraperitoneal administration (Example 12). It counts as in vivo, mouse. The settings on record: for limb perfusion: intraperitoneally immediately following femoral artery occlusion, within three to six days. The method, then:
Mice were ligated in one of their femoral arteries (the […]) to simulate hind limb ischemia. The blood flow was analyzed by machine for each mouse before and immediately after the procedure to evaluate if the femoral was ligated properly. Blood flow was compared with the non-operated leg by a laser Doppler imager. […] The ischemic limb is seen as the limb on left side in the laser Doppler images.
Representative evaluation of the ischemic (left side of each image) and non-ischemic (right side of each image) hind limbs, immediately after, and on days 4 and 14 after surgery. In FIG. 11, the white areas indicate normal perfusion with normal blood circulation and black areas indicate no blood flow in the ischemic left hind limb. […] Dark shaded areas within the white areas located at the distal ends of the limbs indicate […].
The blood flow of the ischemic hind limb is expressed as the ratio between the perfusion of the ischemic limb and the uninjured limb in FIG. 12.

Regarding DAVQRQTTTVVA [Ala-2], the “VEGF binding to endothelial cells over control levels (absence of any peptide)” value in test [1] is “promote VEGF binding to endothelial cells over control levels”.

DRAQRQTTTVVA [Ala-3]: in test [1], the “VEGF binding to endothelial cells over control levels (absence of any peptide)” value is recorded as “promote VEGF binding to endothelial cells over control levels”.

Regarding DRVARQTTTVVA [Ala-4], the “VEGF binding to endothelial cells over control levels (absence of any peptide)” value in test [1] is on record as “promote VEGF binding to endothelial cells over control levels”.

With DRVQAQTTTVVA [Ala-5], the “VEGF binding to endothelial cells over control levels (absence of any peptide)” value in test [1] is on record as “promote VEGF binding to endothelial cells over control levels”. In addition, in test [1] (alanine substitution screen), the “ability of endothelial cells to bind VEGF compared to original #237” value is on record as “more than twice”.

Consider DRVQMQTTTVVA [#237-M], for which the “VEGF binding to endothelial cells over control levels (absence of any peptide)” value in test [1] is “promote VEGF binding to endothelial cells over control levels”. The “wound closure versus control (peptide #237)” value (shortened to “wound closure versus control”) in test [2] is “significantly more wound closure”.

As for DRVQQQTTTVVA [#237-Q], the “VEGF binding to endothelial cells over control levels (absence of any peptide)” value in test [1] is “promote VEGF binding to endothelial cells over control levels”. The “wound closure versus control” value in test [2] was “significantly more wound closure”.

Turning to DRVQRATTTVVA [Ala-6], the “VEGF binding to endothelial cells over control levels (absence of any peptide)” value in test [1] was “promote VEGF binding to endothelial cells over control levels”.

Consider DRVQRQATTVVA [Ala-7], for which the “VEGF binding to endothelial cells over control levels (absence of any peptide)” value in test [1] is listed as “promote VEGF binding to endothelial cells over control levels”.

“DRVQRQTTTVVA (listed as Homo sapiens) [#237]”: the “VEGF binding to endothelial cells over control levels (absence of any peptide)” value in test [1] was “promote VEGF binding to endothelial cells over control levels”. Also, the “increase in I125-VEGF binding” value in test [1] (endothelial cells, peptide 720 μg/ml, I125-VEGF 12 ng/ml, 3 h on ice) is recorded as “more than 25 times”; in test [3], “more than 25 times”. Moreover, the “increase in vessel density versus pellet without peptide” value in test [4] is 53%. In test [5] (180 ug #237 added to the VEGF), the “endothelial cells relative to VEGF alone” value is “six times more”. In test [5], the “endothelial cells among matrigel liberated cells (FACS, CD31)” value is on record as 0.42%. In addition, the “neovascularization around the ear wound site” value in test [6] was “significantly increased the neovascularization”. Further, the “wound area versus untreated mice” value in test [2] (MATRIGEL containing peptide daily for 14 days, day 14, 1 mm wound) is reported as “significantly smaller”. Moreover, the “recovery of the blood flow in the ischemic site” value in test [7] (local injection to the ischemic site (800 ug)) and in test [7] (slow release via pump 0.5 ug/hour) was “complete recovery of the blood flow” in each case. The “blood flow recovery compared to saline treated mice (laser Doppler images)” value in test [8] (days 4 and 14 after surgery) is listed as “increased blood flow recovery”. Moreover, the limb perfusion entry in test [8] was “significantly improves limb perfusion”.

As for “DRVQRQTTTVVG [Ala-12, glycine substitution at position 12, which is naturally alanine]”, the “VEGF binding to endothelial cells over control levels (absence of any peptide)” value in test [1] is on record as “promote VEGF binding to endothelial cells over control levels”.

In the case of DRVQVQTTTVVA [#237-V], in test [1], the “VEGF binding to endothelial cells over control levels (absence of any peptide)” value is recorded as “promote VEGF binding to endothelial cells over control levels”. For the same substance, the “wound closure versus control” value in test [2] was “significantly more wound closure”. Further, in test [8], the limb perfusion result is reported as “significantly improves limb perfusion”.

As to RVQRQTTTVVAG, the “VEGF binding to endothelial cells over control levels (absence of any peptide)” value in test [1] is listed as “promote VEGF binding to endothelial cells over control levels”.

Consider VEGF, for which, in test [5], the “endothelial cells among matrigel liberated cells (FACS, CD31)” value stood at 0.07%.

Regarding VQRQTTTVVAGI, the “VEGF binding to endothelial cells over control levels (absence of any peptide)” value in test [1] was “promote VEGF binding to endothelial cells over control levels”.
